Laboratory results reported in ChEMBL document CHEMBL4421722, “Inhibitors of protein prenyltransferases” (2013).

Organism: Rattus norvegicus
Experiment: Inhibition of rat recombinant geranylgeranyltransferase type I expressed in Escherichia coli assessed as residual enzyme activity for geranylgeranylation of K-Ras4B at 50 uM incubated for 30 mins in presence of [3H]GGPP by scintillation counting assay relative to control

Going from `CCOc1ccc([C@@H]2C[C@@H](Sc3ccc(C)cc3)[C@H](C(=O)O)CN2S(=O)(=O)c2ccc(C)cc2)cc1` to `Cc1ccc(S[C@@H]2C[C@@H](c3ccc(C)cc3)N(S(=O)(=O)c3ccccc3)C[C@H]2C(=O)O)cc1`, the Activity rises from 65.4% to 91.3%.

Compared with `Cc1ccc([C@H]2C(C(=O)O)=CC[C@@H](c3ccc(Cl)cc3)N2S(C)(=O)=O)cc1`, `Cc1ccc([C@@H]2CC=C(C(=O)O)[C@H](c3ccc(Cl)cc3)N2S(C)(=O)=O)cc1` is lower in Activity: 90.6% for the first, 79.1% for the second.

First: CC(=O)C1=CC[C@@H](c2ccc(C)cc2)N(S(=O)(=O)c2ccc(C)cc2)C1
Second: CC(=O)C1=CC[C@@H](c2ccc(Cl)cc2)N(S(=O)(=O)c2ccc(C)cc2)C1
The Activity of the first is higher: 90.6% for the first, 80.8% for the second.

Compared with `Cc1ccc([C@H]2C(C(=O)O)=CC[C@@H](c3ccccc3)N2S(=O)(=O)c2ccc(C)cc2)cc1`, `Cc1ccc([C@H]2C(C(=O)O)=CC[C@@H](c3cccc(Cl)c3)N2S(=O)(=O)c2ccc(C)cc2)cc1` is lower in Activity: 87.5% for the first, 66.1% for the second.

Compared with `CCCCS[C@@H]1C[C@@H](c2ccccc2F)N(S(=O)(=O)c2ccc(C)cc2)C[C@H]1C(=O)O`, `CCCCCS[C@@H]1C[C@@H](c2ccccc2F)N(S(=O)(=O)c2ccc(C)cc2)C[C@H]1C(=O)O` is lower in Activity: 86.3% for the first, 61.4% for the second.

First: CCCCS[C@@H]1C[C@@H](c2ccc(OC)cc2)N(S(=O)(=O)c2ccccc2)C[C@H]1C(=O)O
Second: C=CCS[C@@H]1C[C@@H](c2ccc(OC)cc2)N(S(=O)(=O)c2ccccc2)C[C@H]1C(=O)O
The Activity of the first is lower: 83.1% for the first, 106% for the second.

Going from `COc1ccc([C@@H]2CC=C(C(=O)O)[C@H](c3ccc(F)cc3)N2S(=O)(=O)c2ccccc2C)cc1` to `COc1ccc([C@@H]2CC=C(C(=O)O)[C@H](c3ccc(C)cc3)N2S(=O)(=O)c2ccccc2C)cc1`, the Activity rises from 66.1% to 86%.

Going from `COc1ccc([C@@H]2CC=C(C(=O)O)[C@H](c3cccc(Br)c3)N2S(=O)(=O)c2ccccc2C)cc1` to `COc1ccc([C@@H]2CC=C(C(=O)O)[C@H](c3ccc(C(C)(C)C)cc3)N2S(=O)(=O)c2ccccc2C)cc1`, the Activity rises from 51.9% to 70.7%.

Going from `Cc1ccc(S(=O)(=O)N2[C@@H](c3ccc(C(C)(C)C)cc3)C(C(=O)O)=CC[C@H]2c2cccc(Br)c2)cc1` to `Cc1ccc(S(=O)(=O)N2[C@@H](c3ccc(C(C)(C)C)cc3)C(C(=O)O)=CC[C@H]2c2ccc(Cl)c(Cl)c2)cc1`, the Activity falls from 82.8% to 74.3%.

Compared with `COc1ccc([C@@H]2CC=C(C(=O)O)[C@H](c3cccc(F)c3)N2S(=O)(=O)c2ccc(C)cc2)cc1OC`, `COc1ccc([C@@H]2CC=C(C(=O)O)[C@H](c3cccc(Br)c3)N2S(=O)(=O)c2ccc(C)cc2)cc1OC` is lower in Activity: 88.9% for the first, 59% for the second.

Going from `CCCCS[C@@H]1C[C@@H](c2ccc(OCC)cc2)N(S(=O)(=O)c2ccc(C)cc2)C[C@H]1C(=O)O` to `CCCCS[C@@H]1C[C@@H](c2ccc(CC)cc2)N(S(=O)(=O)c2ccc(C)cc2)C[C@H]1C(=O)O`, the Activity falls from 66% to 58.3%.

First: Cc1ccc(S(=O)(=O)N2[C@@H](c3cccc(Br)c3)C(C(=O)O)=CC[C@H]2c2ccc(Cl)cc2)cc1
Second: Cc1ccc(S(=O)(=O)N2[C@@H](c3ccc(Br)cc3)C(C(=O)O)=CC[C@H]2c2ccc(Cl)cc2)cc1
The Activity of the first is lower: 56.6% for the first, 57.5% for the second.

Going from `Cc1ccc([C@@H]2CC=C(C(=O)O)[C@H](c3ccc(F)cc3)N2S(=O)(=O)c2ccc(C)cc2)cc1` to `Cc1ccc(S(=O)(=O)N2[C@@H](c3ccc(Br)cc3)C(C(=O)O)=CC[C@H]2c2ccc(F)cc2)cc1`, the Activity falls from 67.7% to 62.6%.

Compared with `COc1ccc([C@@H]2CC=C(C(C)=O)CN2S(=O)(=O)c2ccccc2)cc1`, `CC(=O)C1=CC[C@@H](c2cccc3ccccc23)N(S(=O)(=O)c2ccc(C)cc2)C1` is lower in Activity: 110% for the first, 95.6% for the second.

Going from `CCCCS[C@@H]1C[C@@H](c2ccc(C)cc2)N(S(C)(=O)=O)C[C@H]1C(=O)O` to `CCCCS[C@@H]1C[C@@H](c2ccc(Cl)cc2)N(S(=O)(=O)c2ccc(C)cc2)C[C@H]1C(=O)O`, the Activity falls from 104% to 81.5%.

Compared with `CCS[C@@H]1C[C@@H](c2cccc(OC)c2)N(S(=O)(=O)c2ccc(C)cc2)C[C@H]1C(=O)O`, `CCS[C@@H]1C[C@@H](c2cccc(Cl)c2)N(S(=O)(=O)c2ccc(C)cc2)C[C@H]1C(=O)O` is lower in Activity: 84.8% for the first, 75.7% for the second.

First: Cc1ccc([C@@H]2C[C@@H](SCc3ccc(Cl)cc3)[C@H](C(=O)O)CN2S(=O)(=O)c2ccc(C)cc2)cc1
Second: Cc1ccc([C@@H]2C[C@@H](Sc3ccccc3)[C@H](C(=O)O)CN2S(=O)(=O)c2ccc(Cl)cc2)cc1
The Activity of the first is lower: 50.9% for the first, 87.1% for the second.

Compared with `Cc1ccc(S(=O)(=O)N2C[C@@H](C(=O)O)[C@H](SCCC(C)C)C[C@H]2c2ccc(Cl)cc2)cc1`, `CCCCCCS[C@@H]1C[C@@H](c2ccc(C)cc2)N(S(=O)(=O)c2ccc(C)cc2)C[C@H]1C(=O)O` is higher in Activity: 39.4% for the first, 70.9% for the second.

First: CCCS[C@@H]1C[C@@H](c2cccc(Br)c2)N(S(=O)(=O)c2ccc(C)cc2)C[C@H]1C(=O)O
Second: CCCCS[C@@H]1C[C@@H](c2ccccc2)N(S(=O)(=O)c2ccc(C)cc2)C[C@H]1C(=O)O
The Activity of the first is lower: 88.5% for the first, 93.4% for the second.

Compared with `O=C(O)C1=CC[C@@H](c2ccc(Cl)cc2)N(S(=O)(=O)c2ccc(Cl)cc2)[C@H]1c1cccc(F)c1`, `O=C(O)C1=CC[C@@H](c2ccc(Cl)cc2)N(S(=O)(=O)c2ccc(Cl)cc2)[C@H]1c1ccc(Br)cc1` is lower in Activity: 44.8% for the first, 32.6% for the second.

Compared with `Cc1ccc([C@@H]2CC=C(C(=O)O)[C@H](c3ccc(C(C)(C)C)cc3)N2S(=O)(=O)c2ccc(C)cc2)cc1`, `Cc1ccc([C@H]2C(C(=O)O)=CC[C@@H](c3ccc(Cl)cc3)N2S(=O)(=O)c2ccc(C)cc2)cc1` is lower in Activity: 85.5% for the first, 60.7% for the second.

First: Cc1ccc(S(=O)(=O)N2[C@@H](c3ccc(Br)cc3)C(C(=O)O)=CC[C@H]2c2cccc(F)c2)cc1
Second: Cc1ccc(S(=O)(=O)N2[C@@H](c3ccc(Br)cc3)C(C(=O)O)=CC[C@H]2c2cccc(Cl)c2)cc1
The Activity of the first is lower: 60.8% for the first, 69.2% for the second.

Compared with `Cc1ccc(S(=O)(=O)N2[C@@H](c3ccc(F)cc3)C(C(=O)O)=CC[C@H]2c2ccc(C(C)C)cc2)cc1`, `Cc1ccc(S(=O)(=O)N2[C@@H](c3ccc(Cl)cc3)C(C(=O)O)=CC[C@H]2c2ccc(F)cc2)cc1` is higher in Activity: 50.9% for the first, 64.8% for the second.

First: Cc1ccc(S(=O)(=O)N2C[C@@H](C(=O)O)[C@H](Sc3ccccc3)C[C@H]2c2ccccc2)cc1
Second: Cc1ccc(S[C@@H]2C[C@@H](c3ccccc3F)N(S(=O)(=O)c3ccc(C)cc3)C[C@H]2C(=O)O)cc1
The Activity of the first is lower: 49.3% for the first, 80.4% for the second.

Going from `Cc1ccc(S(=O)(=O)N2[C@@H](c3ccc(Br)cc3)C(C(=O)O)=CC[C@H]2c2ccc3c(c2)OCO3)cc1` to `COc1ccc([C@@H]2CC=C(C(=O)O)[C@H](c3cccc(F)c3)N2S(=O)(=O)c2ccc(C)cc2)cc1`, the Activity rises from 74.4% to 87.5%.

Compared with `Cc1ccc([C@@H]2C[C@@H](SC3CCCC3)[C@H](C(=O)O)CN2S(=O)(=O)c2ccc(C)cc2)cc1`, `C=CCS[C@@H]1C[C@@H](c2ccc(OC)cc2)N(S(=O)(=O)c2ccc(C)cc2)C[C@H]1C(=O)O` is higher in Activity: 87.8% for the first, 108% for the second.

First: C=CCS[C@@H]1C[C@@H](c2ccc3c(c2)OCO3)N(S(=O)(=O)c2ccc(C)cc2)C[C@H]1C(=O)O
Second: Cc1ccc(S(=O)(=O)N2C[C@@H](C(=O)O)[C@H](SCc3ccc(C(C)(C)C)cc3)C[C@H]2c2ccccc2)cc1
The Activity of the first is higher: 76.4% for the first, 55.9% for the second.

Going from `COc1ccc(S[C@@H]2C[C@@H](c3ccc(Cl)cc3)N(S(=O)(=O)c3ccccc3C)C[C@H]2C(=O)O)cc1` to `COC(=O)c1ccccc1S(=O)(=O)N1[C@@H](c2ccc(C(C)(C)C)cc2)C(C(=O)O)=CC[C@H]1c1ccc(C)cc1`, the Activity rises from 85.6% to 111%.
